This is an account of results in US7919475B2, “Compositions and methods for improving heart function” (The Regents of The University of California, priority 2004, dated 2011).

Experiment [1] relates to neonatal rat cardiomyocytes. Briefly: Indo-1 [Ca2+]i transients in cultured neonatal cardiomyocytes. It counts as cell-based. The note with it: for time to achieve a 50% decrease in the calcium transient (T1/2): 5.5 mM glucose supplemented with 8 mM glucosamine or 50 μM PUGNAc, 72 hours; for increase in diastolic calcium decay relative to controls: 5.5 mM glucose with 8 mM glucosamine or 50 μM PUGNAc. As for the experimental part:
(§1) Cardiomyocyte Isolation and Culture. Primary cultures of neonatal rat cardiomyocytes were prepared as described previously, see, e.g., Hartong (1996) J. Mol. Cell. Cardiol. 28:2467-2477. Cells were plated onto gelatin-coated culture dishes or laminin-coated glass chamber slides. Plating medium consisted of 4.25:1 DMEM:M199, 10% horse serum, 5% fetal bovine serum, 1% penicillin/streptomycin/fungizone (PSF), and 5.5 mM D-glucose. Cells were allowed to adhere to the plates for 24 hours before changing to basic experimental culture medium (4.5:1 DMEM:M199, 2% fetal bovine serum, 1% PSF, and 100 μM insulin) and supplemented with glucose at either physiological (5.5 mM; normal glucose) or elevated (25 mM; high glucose) concentrations. For some experiments, media was supplemented with 8 mM glucosamine, 40 μM aminoguanidine, 0.5 μg/ml tunicamycin, 50 μM PUGNAc or an osmotic control (20 mM mannitol). In cases where cells were plated at exceptionally high density (5×10^6 per 100 mm plate), the culture medium was changed daily until the cells were harvested.
Construction of adenoviral vectors. The rat cDNA corresponding to the UDP-N-acetylglucosamine:peptide N-acetylglucosaminyl transferase gene (O-GlcNAc transferase; OGT), which encodes the enzyme responsible for the O-linkage of single N-acetylglucosamine molecules to serine/threonine residues (19), and the human cDNA encoding the O-GlcNAcase gene (GCA), the enzyme responsible for removing O-linked N-acetylglucosamine residues (see, e.g., Haltiwanger (1992) J. Biol. Chem. 267:9005-9013). Each cDNA was inserted into the E1 region of an adenoviral vector construct using previously described methods (see, e.g., Gao (2001) J. Biol. Chem. 276:9838-9845). Replication-deficient adenovirus particles containing the target gene or empty vector (SR−) were generated by in vivo recombination in 293 cells and single plaques were isolated and propagated to achieve high titer. Adenoviral particles were CsCl-purified and quantified by plaque titer assay. Myocytes were infected with a multiplicity of infection (MOI) of 25 for all viruses.
Measurement of [Ca^2+]I transients. Indo-1 facilitated measurement of Ca^2+ transients has been described previously, see, e.g., He (1997) J. Clin. Invest 100:380-389). […] Cells were rinsed and incubated for 20 min at RT in appropriate serum-free culture medium containing 1.8 mM CaCl2 prior to making fluorescence measurements to allow for deesterification of the Indo-1/AM. […] Transients were measured from at least 18 cells per slide per treatment. […]
Calcium transients. To determine whether elevated extracellular glucose and increased O-GlcNAcylation would exert an effect on intracellular calcium flux, Indo-1 calcium transients were determined in neonatal rat cardiomyocytes. […]

The test system of experiment [2] is nuclear O-GlcNAcylation. Briefly: Nuclear O-GlcNAcylation by Western immunoblot (antibody 110.6) in neonatal cardiomyocytes. It counts as cell-based, rat. The note with it: 72 hours; 25 mM glucose; 5.5 mM glucose with 8 mM glucosamine or 50 μM PUGNAc; 25 mM glucose with adenovirus MOI 25. Background: Immunoblotting shows a protein as a band on a membrane.
Method: Samples of each extract (25-50 μg) were fractionated by SDS-PAGE on precast 4-20% Tris-glycine gels (BioRad) and transferred to nylon membranes. Membranes were blocked overnight, exposed to the O-GlcNAc-specific antibody 110.6 (17) (1:10,000) overnight at 4° C., then exposed for 1 hour to 1:5,000 goat anti-mouse IgM-HRP. Alternatively, membranes were exposed to anti-MEF-2 (1:200) for one hour at RT followed by a one hour exposure to 1:10,000 goat anti-rabbit IgG-HRP. Visualization and quantification was as described above.
Cells were cultured for 72 hours in 5.5 mM glucose (NG) or 25 mM glucose (HG) and supplemented with one of the following: 8 mM glucosamine (NG/GlcN), 50 μM PUGNAc, or adenovirus encoding either OGT or GCA. Adenoviruses were applied at an MOI=25. Nuclear extracts (50 μg) were prepared according to the methods outlines in “Experimental Procedures”, resolved on 4-20% gradient SDS-tricine gels, transferred to nylon membranes and immunoblotted with a monoclonal anti-O-GlcNAc antibody 110.6.
Experiment [3] has as its system SERCA2a. The experiment in a line: SERCA2a protein level by Western immunoblot in neonatal cardiomyocytes. It counts as cell-based, rat. The note with it: for influence on SERCA2a protein levels: 40 μM aminoguanidine or 0.5 μg/ml tunicamycin, regardless of glucose concentration. As for the experimental part:
as §1
Western Immunoblotting. To determine SERCA2a protein levels, myocytes (1×10^6) were washed with phosphate buffered saline (PBS), then extracted with 0.2 ml lysis buffer (20 mM Tris, pH 7.4, 20 mM NaCl, 0.1 mM EDTA, 1% Triton X-100, 0.5% Na-deoxycholate, 1 mM dithiothreitol). Lysates were incubated on ice for 30 min, and cellular debris was pelleted at 10,000×g for 20 min at 4° C. Protein concentration in the supernatant was determined by BioRad protein reagent. 30 μg of protein diluted in extraction buffer and 4× Laemmli sample buffer were loaded without boiling onto pre-cast 4-20% Tris-glycine gels. Separated proteins were transferred to nylon membranes using a Bio-Rad Mini Trans-Blot apparatus and blocked overnight at 4° C. Blots were incubated with a rabbit polyclonal SERCA2a antibody (see, e.g., Hartong (1996) supra) (1:5000) for 1 hour at RT, followed by a 1 hour incubation with a 1:5000 dilution of goat anti-rabbit IgG-HRP conjugated secondary antibody (Amersham). Bands were visualized by reacting with chemiluminescent substrate (NEN) and exposed to film. Protein bands were quantified from scanned images using Scion imaging software (Scion, Frederick, Md.).
SERCA2a in RNA, protein expression and promoter activity. […] FIG. 2 illustrates Northern and western blots of neonatal cardiomyocytes. (FIG. 2A) Results of a northern blot for SERCA2a mRNA in neonatal cardiomyocytes cultured for 72 hours with 5.5 mM (NG) or 25 mM (HG) glucose. Total RNA (15 μg) isolated from cultured myocytes was resolved using a denaturing agarose gel, transferred to a nylon membrane and probed with a full length ^32P-labeled probe corresponding to rat SERCA2a as described in “Experimental Procedures”. (FIG. 2B) Western immunoblot analysis of SERCA2a protein levels from neonatal cardiomyocytes exposed to 5.5 mM or 25 mM glucose in the presence and absence of 40 μM aminoguanidine (AG), 0.5 μg/ml tunicamycin (Tun), or 8 mM glucosamine (GlcN, 5.5 mM glucose group only). Crude lysates (30 μg) were resolved using 4-20% gradient SDS-PAGE gels, transferred to nylon membranes, and immunoblotted with a SERCA2a polyclonal antibody as described in “Experimental Procedures”. […] (C) SERCA2a protein levels based on Western immunoblots from adenovirus-infected neonatal cardiomyocytes.

Experiment [4] relates to rat SERCA2a promoter. The experiment in a line: SERCA2a promoter luciferase assay in neonatal cardiomyocytes. The format is cell-based. The note with it: 5.5 mM glucose/8 mM glucosamine. The method, then:
Transfections and SERCA2a Promoter Luciferase Assays. DNA transfection of neonatal cardiomyocytes was performed using the calcium phosphate-DNA co-precipitation method, see, e.g., Chen (1987) Mol. Cell. Biol 7:2745-2752. Cells (0.5×10^6) were transfected overnight in appropriate culture medium (either NG- or HG-containing medium) with 50 ng of either a 0.6 kb fragment of the rat SERCA2a promoter (corresponding to the 600 bases immediately upstream of the transcriptional start codon) (see, e.g., Rohrer (1991) J. Biol. Chem. 266:8638-8646) or a control plasmid (pGL3; Promega) and 3 μg of fill plasmid (pBS; Stratagene), then washed with PBS and changed into fresh culture medium. […] Transfected cells were incubated for 48 hours, then washed with PBS and incubated for 10 min with gentle agitation at RT in 200 μl of harvest buffer (50 mM MES/Tris pH 7.8, 0.1% Triton X-100, and 1.3 mM dithiothreitol). Luciferase activity was measured using 100 μl of extract in a luminometer.
The reduction in SERCA2a mRNA and protein expression observed following treatment of myocytes with high glucose prompted us to examine whether these effects were being exerted, at least in part, by interactions with the SERCA2a gene promoter. […] Crude cell lysates were incubated with luciferase substrate and relative light units were measured on a luminometer. […]

Experiment [5] has as its system MEF-2a. Briefly: MEF-2a protein level by immunoblot of nuclear extracts of neonatal cardiomyocytes. The note with it: 25 mM glucose; 5.5 mM glucose with 8 mM glucosamine; 25 mM glucose with adeno-OGT MOI 25. It counts as cell-based, rat.
Method: To examine cellular O-GlcNAcylation and MEF-2a levels, nuclear extracts were prepared from neonatal cardiomyocytes (2×10^6) using modifications of the procedures described by Dignam (1983) Nucleic Acids Res. 11:1475-1489. Samples of each extract (25-50 μg) were fractionated by SDS-PAGE on precast 4-20% Tris-glycine gels (BioRad) and transferred to nylon membranes. Membranes were blocked overnight, exposed to the O-GlcNAc-specific antibody 110.6 (17) (1:10,000) overnight at 4° C., then exposed for 1 hour to 1:5,000 goat anti-mouse IgM-HRP. Alternatively, membranes were exposed to anti-MEF-2 (1:200) for one hour at RT followed by a one hour exposure to 1:10,000 goat anti-rabbit IgG-HRP. Visualization and quantification was as described above.
Nuclear extracts (50 μg) were prepared as described in “Experimental Procedures” above, resolved on 10% SDS-PAGE gels, transferred to nylon membranes and immunoblotted with anti-MEF2 antibody (Santa Cruz Biotech).
The subject of experiment [6] is CB6F1 mice. Briefly: Blood glucose and cardiac UDP-sugar nucleotides in streptozocin-injected mice. The format is in vivo, mouse. The note with it: streptozocin 150 mg/kg intraperitoneal, three weeks. As for the experimental part: Animals and Determination of Cardiac Sugar Nucleotides. Male CB6F1 mice weighing 20-25 g (Charles River, Wilmington, Mass.) were made diabetic using methods described previously, see, e.g., Trost (2002) supra. Briefly, diabetes was induced with a single intraperitoneal injection of streptozocin (150 mg/kg in citrate saline, pH 4.5) to animals fasted overnight (16 hrs). Diabetic animals were sacrificed three weeks following injection. To determine the degree of diabetes, blood was drawn via direct cardiac puncture in CO2-euthanized animals and plasma glucose concentration was determined using the Sigma Glucose Kit (510-A).
Sugar nucleotides were extracted from fresh ventricles and quantified by HPLC as described by Weckbecker (1983) Anal. Biochem. 132:405-412. Hearts were homogenized in 3 vols of ice-cold 0.3 M HClO4 and debris pelleted at 10,000×g for 15 min at 4° C. Two vols of 1:4 trioctylamine: 1,1,2-trichlorotrifluoroethane (Freon) were added to the supernatant, followed by vortexing for 30 sec and centrifuging at 1000×g for 5 min at 4° C. The aqueous phase was carefully transferred to a fresh tube and frozen at −80° C. until assayed. Samples were diluted in 0.5 ml H2O and desalted on a Mono-Q column (flow rate 1 ml/min). The combined UDP-GlcNAc/GalNAc fraction was collected as a peak at 23 minutes and the sample was lyophilized overnight. Dried samples were subsequently dissolved in borate solution (0.22 M boric acid, 0.09 M disodium tetraborate, and 1.2 M glycerol, pH 6.85), and separated into distinct UDP-GlcNAc and UDP-GalNAc peaks on a Partisil SAX-10 column. […]
Effects of STZ-induced diabetes on UDP-nucleotide levels. […] Blood was drawn via direct cardiac puncture and plasma [glucose] was subsequently determined using a Sigma Glucose kit. Sugar nucleotides were extracted immediately from hearts and quantitated using HPLC as described in “Experimental Procedures” above. […] Fractions were quantified by comparing total peak area with results from known concentrations of each sugar nucleotide.

Turning to `CC(=O)N[C@H]1/C(=N/OC(=O)Nc2ccccc2)O[C@H](CO)[C@@H](O)[C@@H]1O` [PUGNAc, O-(2-acetamido-2-deoxy-D-glucopyranosylidene)amino-N-phenyl carbamate], in experiment [1], the “time to achieve a 50% decrease in the calcium transient (T1/2)” value was 1.31 ± 0.085 s and the “increase in diastolic calcium decay relative to controls” value is recorded as 43%. Besides, the “overall levels of nuclear O-GlcNAcylation” value in experiment [2] is reported as “substantially increased”.
For the compound `N[C@H]1C(O)O[C@H](CO)[C@@H](O)[C@@H]1O` (some centres unmarked) [glucosamine], in experiment [1], the “time to achieve a 50% decrease in the calcium transient (T1/2)” value amounted to 1.32 ± 0.061 s and the “increase in diastolic calcium decay relative to controls” value came out at 43%. Also, the “change in SERCA2a protein compared with controls” value in experiment [3] (5.5 mM glucose and 8 mM glucosamine) is recorded as −25±3%. The “SERCA2a protein levels compared with myocytes exposed only to 5.5 mM glucose” value in experiment [3] (25 mM glucose and glucosamine) is “unchanged”. The “reduction in SERCA2a promoter activity compared with normal glucose controls” value in experiment [4] is on record as 33%. Further, the “overall levels of nuclear O-GlcNAcylation” value in experiment [2] is “substantially increased”. In addition, in experiment [5], the “decrease in MEF-2a expression levels compared with normal glucose controls” value is 52%.
As for `N=C(N)NN` [aminoguanidine], the “influence on SERCA2a protein levels” value in experiment [3] is recorded as “Neither aminoguanidine nor tunicamycin appeared to influence SERCA2a protein levels”. Besides, the “apparent increase in SERCA2a vs controls” value in experiment [3] (25 mM glucose and 40 μM aminoguanidine, repeated trials) is “not statistically significant”.
In experiment [6], `CN(N=O)C(=O)N[C@@H](C=O)[C@@H](O)[C@H](O)[C@H](O)CO` [STZ, streptozocin] gave a UDP-GalNAc in heart of 0.51 ± 0.01 nmol, a UDP-GlcNAc in heart of 1.36 ± 0.03 nmol and a blood glucose of 969 ± 40 mg/dL.
As to tunicamycin, the “influence on SERCA2a protein levels” value in experiment [3] was “Neither aminoguanidine nor tunicamycin appeared to influence SERCA2a protein levels”.
Take `OC[C@@H](O)[C@@H](O)[C@H](O)[C@H](O)CO` [mannitol]: the “osmotic effect on SERCA2a protein levels” value in experiment [3] (5.5 mM glucose and 20 mM mannitol) is recorded as “nor did we observe any osmotic effect”.
